What is called MIC is the lowest concentration found to suppress growth.

Assay type in all cases: cell-based
In one assay the test system is A. calcoaceticus /15473A. Kind of assay: MIC against standard strain by two-fold agar dilution, A. calcoaceticus /15473A. The note with it: Acinetobacter calcoaceticus, 20 h. The procedure: (§1) These MIC values were taken by employing a two-fold dilution method: that is, two-fold serial dilutions of each of the test compounds were made and dispersed in a Muller-Hinton agar medium; 2 μl of the standard test strain which had the 10^7 CFU(Colony Forming Unit) per ml was inoculated on the medium; and these were incubated at 37° C. for 20 hours.

The next assay has as its system E. coli/3190Y. The experiment in a line: MIC against standard strain by two-fold agar dilution, E. coli/3190Y. The note with it: Escherichia coli, 20 h. The procedure:
as §1
(Agar dilution tests growth on a series of plates holding different concentrations.)

For the next assay, the system named is E. coli/10536. The experiment in a line: MIC against standard strain by two-fold agar dilution, E. coli/10536. The note with it: Escherichia coli, 20 h. The procedure:
as §1

The next assay concerns P. aeruginosa/6065Y. Kind of assay: MIC against standard strain by two-fold agar dilution, P. aeruginosa/6065Y. The note with it: Pseudomonas aeruginosa, 20 h. The procedure:
as §1

The next assay concerns E. coli TEM9/2639E. Kind of assay: MIC against standard strain by two-fold agar dilution, E. coli TEM9/2639E. The note with it: Escherichia coli, 20 h. The procedure:
as §1

The subject of a further assay is K. aerogenes/1776E. Kind of assay: MIC against standard strain by two-fold agar dilution, K. aerogenes/1776E. The note with it: Klebsiella aerogenes, 20 h. As to the method: as §1
In a further assay the test system is E. coli TEM1/1193E. Kind of assay: MIC against standard strain by two-fold agar dilution, E. coli TEM1/1193E. The note with it: Escherichia coli, 20 h. As to the method: as §1
In another assay the test system is S. aureus/giorigio. The experiment in a line: MIC against standard strain by two-fold agar dilution, S. aureus/giorigio. The note with it: Staphylococcus aureus, 20 h. As to the method:
as §1

The subject of the next assay is E. coli TEM5/3739E. The experiment in a line: MIC against standard strain by two-fold agar dilution, E. coli TEM5/3739E. The note with it: Escherichia coli, 20 h. The procedure: as §1
The subject of the next assay is S. aureus/77. The experiment in a line: MIC against standard strain by two-fold agar dilution, S. aureus/77. The note with it: Staphylococcus aureus, 20 h. The procedure:
as §1

The subject of the next assay is S. marcescens/1826E. Kind of assay: MIC against standard strain by two-fold agar dilution, S. marcescens/1826E. The note with it: Serratia marcescens, 20 h. The procedure:
as §1

The subject of a further assay is P. aeruginosa/1912E. Kind of assay: MIC against standard strain by two-fold agar dilution, P. aeruginosa/1912E. The note with it: Pseudomonas aeruginosa, 20 h. As to the method:
as §1

The next assay relates to S. typhimunium/14028A. The experiment in a line: MIC against standard strain by two-fold agar dilution, S. typhimunium/14028A. The note with it: 20 h. As to the method:
as §1

In another assay the test system is P. aeruginosa/10145. Kind of assay: MIC against standard strain by two-fold agar dilution, P. aeruginosa/10145. The note with it: Pseudomonas aeruginosa, 20 h. As to the method: as §1
The next assay concerns S. aureus/6538pA. The experiment in a line: MIC against standard strain by two-fold agar dilution, S. aureus/6538pA. The note with it: Staphylococcus aureus, 20 h. The procedure:
as §1

Another assay relates to E. cloacae/1194E. Kind of assay: MIC against standard strain by two-fold agar dilution, E. cloacae/1194E. The note with it: Enterobacter cloacae, 20 h. The procedure:
as §1

Molecules are shown by their SMILES. ≈ marks a conversion by molar mass, not a printed value.

On to `CC(C)(O/N=C(\C(=O)N[C@@H]1C(=O)N2C(C(=O)[O-])=C(C[n+]3ccccc3)CS[C@H]12)c1csc(N)n1)C(=O)O` [ceftazidime, Ceftazidime, reference compound], for which the MIC in the assay with A. calcoaceticus /15473A was 2 µg/mL (≈ 3.66 µM); in the assay with E. coli/3190Y, 0.031 µg/mL (≈ 0.0567 µM); against E. coli/10536 it was 0.063 µg/mL (≈ 0.115 µM); against P. aeruginosa/6065Y it was 32 µg/mL (≈ 58.5 µM); in the assay on E. coli TEM9/2639E it was more than 128 µg/mL; in the assay on K. aerogenes/1776E, 0.25 µg/mL (≈ 0.457 µM). The MIC with E. coli TEM1/1193E amounted to 0.28 µg/mL (≈ 0.512 µM); in the assay with S. aureus/giorigio, 4 µg/mL (≈ 7.32 µM); in the assay on E. coli TEM5/3739E, 8 µg/mL (≈ 14.6 µM); against S. aureus/77 it was 32 µg/mL (≈ 58.5 µM); in the assay on S. marcescens/1826E, 0.25 µg/mL (≈ 0.457 µM); in the assay on P. aeruginosa/1912E, 1 µg/mL (≈ 1.83 µM). Also, the MIC with S. typhimunium/14028A was 0.25 µg/mL (≈ 0.457 µM); with P. aeruginosa/10145, 2 µg/mL (≈ 3.66 µM); against S. aureus/6538pA, 16 µg/mL (≈ 29.3 µM); in the assay with E. cloacae/1194E, 64 µg/mL (≈ 117 µM).

(Values after patent publication US5416081A, “Cephalosporin compounds” (Lucky Limited, priority 1992, dated 1995).)
